Reference: US11746116B2, “Antibiotic resistance breakers” (KING'S COLLEGE LONDON, priority 2017, dated 2023)

How the values were obtained:
extended bacterial panel = assay: MIC against an extended bacterial panel (Table 15); assay type: cell-based
M6 = assay: MIC, microdilution broth method; assay type: cell-based
KP13368 = assay: MIC, microdilution broth method; assay type: cell-based
VRE12204 = assay: MIC, microdilution broth method; assay type: cell-based, Enterococcus faecium; conditions: ESKAPE panel, Gram-positive; in µg/mL
PA01 = assay: MIC, microdilution broth method; assay type: cell-based, Pseudomonas aeruginosa
EMRSA15 = assay: MIC, microdilution broth method; assay type: cell-based, Staphylococcus aureus
Ab17978 = assay: MIC, microdilution broth method; assay type: cell-based
AYE = assay: MIC, microdilution broth method; assay type: cell-based, Acinetobacter baumannii
[1] = ESKAPE panel, Gram-negative, in µg/mL

Cc1cc(C)nc(N[C@@H]2CCN(c3c(F)cc4c(=O)c(C(=O)O)cn5c4c3OC[C@@H]5C)C2)n1 [KSN-BL7, (S)-10-((R)-3-((4,6-dimethylpyrimidin-2-yl)amino)pyrrolidin-1-yl)-9-fluoro-3-methyl-7-oxo-2,3-dihydro-7H-[1,4]oxazino[2,3,4-ij]quinoline-6-carboxylic acid]
≤ 0.125 µg/mL: MIC (Ab17978; Acinetobacter baumannii)
1: MIC, VRE12204 (VRE12204)
4 µg/mL: MIC (extended bacterial panel; Staphylococcus aureus, MRSA / NRS 22 / USA600 / VISA, Staphylococcus aureus NRS22, USA600 MRSA/VISA) | MIC (extended bacterial panel; Staphylococcus aureus, MRSA / NRS 127, Staphylococcus aureus NRS127, MRSA LZD-NS) | MIC (extended bacterial panel; Staphylococcus aureus, MRSA / VISA, Staphylococcus aureus FDA-CDC AR-BANK# 0219)
0.0625 µg/mL: MIC (extended bacterial panel; Staphylococcus aureus, NRS 12 / VISA, Staphylococcus aureus NRS12, VISA) | MIC (extended bacterial panel; Staphylococcus epidermidis, NRS60, Staphylococcus epidermidis NRS60, VISE) | MIC (extended bacterial panel; Staphylococcus saprophyticus, ATCC15305, Staphylococcus saprophyticus ATCC 15305) | MIC (extended bacterial panel; Streptococcus pneumoniae, ATCC700669, Streptococcus pneumoniae SP264, ATCC 700669, ST 23F) | MIC (extended bacterial panel; Streptococcus pneumoniae, ATCC700673, Streptococcus pneumoniae Hungary 19A, ATCC 700673, MDR) | MIC (extended bacterial panel; Streptococcus pneumoniae, ATCC700675, Streptococcus pneumoniae S. Africa 6B-8, ATCC 700675) | MIC (extended bacterial panel; Streptococcus pneumoniae, ATCC 700677 / PRSP, Streptococcus pneumoniae CSR 14-10, ATCC 700677, PRSP) | MIC (extended bacterial panel; Streptococcus pneumoniae, PRSP, Streptococcus pneumoniae TM532)
0.125-: MIC, EMRSA15 (EMRSA15; ESKAPE panel, Gram-positive)
2 µg/mL: MIC (extended bacterial panel; Staphylococcus aureus, ATCC 700699 / MRSA / VISA, Staphylococcus aureus Mu50, ATCC 700699, MRSA/VISA) | MIC (extended bacterial panel; Staphylococcus aureus, MRSA / NRS 269, Staphylococcus aureus NRS269, MRSA TGC-NS) | MIC (extended bacterial panel; Staphylococcus aureus, MRSA / VRSA, Staphylococcus aureus VRS11b, VanA MRSA/VRSA) | MIC (M6; Klebsiella pneumoniae)
0.25 µg/mL: MIC (extended bacterial panel; Enterococcus faecalis, ATCC29212, Enterococcus faecalis ATCC 29212) | MIC (extended bacterial panel; Enterococcus faecalis, ATCC51575, Enterococcus faecalis ATCC 51575, VanB) | MIC (extended bacterial panel; Enterococcus gallinarum, ATCC 49608 / GALLINARUM, Enterococcus gallinarum ATCC 49608, VanC) | MIC (extended bacterial panel; Staphylococcus aureus, MRSA / NRS 386 / USA700, Staphylococcus aureus NRS386, USA700 MRSA) | MIC (extended bacterial panel; Staphylococcus aureus, MRSA, Staphylococcus aureus ECL 2963621, MRSA DAP-NS) | MIC (extended bacterial panel; Streptococcus agalactiae, ATCC12386, Streptococcus agalactiae ATCC 12386) | MIC (extended bacterial panel; Streptococcus oralis, ATCC9811, Streptococcus oralis ATCC 9811) | MIC (extended bacterial panel; Streptococcus salivarius, ATCC13419, Streptococcus salivarius ATCC 13419) | MIC (extended bacterial panel; Streptococcus sanguinis, ATCC10556, Streptococcus sanguinis ATCC 10556)
0.125-0.25: MIC, EMRSA15 (EMRSA15; EMRSA15 (Table 16, role of the terminal pyrimidine ring), in µg/mL)
8: MIC, PA01 (PA01; [1]) | MIC, AYE (AYE; [1])
0.125 µg/mL: MIC (extended bacterial panel; Enterococcus faecalis, ATCC51299, Enterococcus faecalis ATCC 51299, VanB) | MIC (extended bacterial panel; Enterococcus faecalis, ATCC700802, Enterococcus faecalis ATCC 700802, VanB) | MIC (extended bacterial panel; Strepotococcus pyogenes ATCC 14289) | MIC (extended bacterial panel; Strepotococcus pyogenes ATCC 19615) | MIC (extended bacterial panel; Streptococcus pneumoniae, ATCC6301, Streptococcus pneumoniae ATCC 6301) | MIC (extended bacterial panel; Streptococcus pneumoniae, ATCC49619, Streptococcus pneumoniae ATCC 49619) | MIC (extended bacterial panel; Streptococcus pneumoniae, ATCC51916, Streptococcus pneumoniae Tenessee 23F, ATCC 51916, MDR) | MIC (extended bacterial panel; Streptococcus pneumoniae, ATCC700676, Streptococcus pneumonia England ST14-9 ATCC 700676, ERY-R) | MIC (EMRSA15; Staphylococcus aureus)
≤0.125: MIC, Ab17978 (Ab17978; [1])
1 µg/mL: MIC (extended bacterial panel; Enterococcus faecium, CCUG59167, Enterococcus faecium TUH44-29, CCUG 59167, Van A) | MIC (extended bacterial panel; Staphylococcus aureus, ATCC29213, Staphylococcus aureus ATCC 29213 with 50% human serum) | MIC (extended bacterial panel; Staphylococcus aureus, MRSA / NRS 17 / VISA, Staphylococcus aureus NRS17, MRSA/VISA) | MIC (extended bacterial panel; Staphylococcus aureus, MRSA / NRS 56 / VISA, Staphylococcus aureus NRS56, MRSA/VISA) | MIC (extended bacterial panel; Staphylococcus aureus, MRSA / NRS 71, Staphylococcus aureus NRS71, MRSA) | MIC (extended bacterial panel; Staphylococcus aureus, MRSA / NRS 119, Staphylococcus aureus NRS119, MRSA LZD-NS) | MIC (extended bacterial panel; Staphylococcus aureus, MRSA / NRS 383 / USA200, Staphylococcus aureus NRS383, USA200 MRSA TIG-NS) | MIC (extended bacterial panel; Staphylococcus aureus, MRSA / NRS 402 / VISA, Staphylococcus aureus NRS402, MRSA/VISA DAP-NS) | MIC (extended bacterial panel; Staphylococcus aureus, MRSA / VISA, Staphylococcus aureus FDA-CDC AR-BANK# 0217) | MIC (extended bacterial panel; Staphylococcus aureus, MRSA / VISA, Staphylococcus aureus FDA-CDC AR-BANK# 0218, MRSA/VISA Mupirocin-R) | MIC (extended bacterial panel; Staphylococcus aureus, MRSA / VISA, Staphylococcus aureus FDA-CDC AR-BANK# 0220) | MIC (extended bacterial panel; Staphylococcus aureus, MRSA / VISA, Staphylococcus aureus FDA-CDC AR-BANK# 0223) | MIC (extended bacterial panel; Staphylococcus aureus, MRSA / VISA, Staphylococcus aureus FDA-CDC AR-BANK# 0224, MRSA/VISA Mupirocin-R) | MIC (extended bacterial panel; Staphylococcus aureus, MRSA / VISA, Staphylococcus aureus FDA-CDC AR-BANK# 0225) | MIC (extended bacterial panel; Staphylococcus aureus, MRSA / VISA, Staphylococcus aureus FDA-CDC AR-BANK# 0227) | MIC (extended bacterial panel; Staphylococcus aureus, MRSA / VRSA, Staphylococcus aureus VRS1, VanA MRSA/VRSA) | MIC (extended bacterial panel; Staphylococcus aureus, MRSA, Staphylococcus aureus ECL 2963666, MRSA DAP-NS) | MIC (extended bacterial panel; Staphylococcus aureus, MRSA, Staphylococcus aureus ECL 2963667, MRSA DAP-NS) | MIC (extended bacterial panel; Staphylococcus epidermidis, NRS8, Staphylococcus epidermidis NRS8, VISE)
8 µg/mL: MIC (extended bacterial panel; Staphylococcus aureus, MRSA / VISA, Staphylococcus aureus FDA-CDC AR-BANK# 0228, MRSA/VISA Mupirocin-R) | MIC (PA01; Pseudomonas aeruginosa) | MIC (AYE; Acinetobacter baumannii)
2: MIC, M6 (M6; [1])
16 µg/mL: MIC (extended bacterial panel; Staphylococcus aureus, MRSA / VISA, Staphylococcus aureus FDA-CDC AR-BANK# 0215) | MIC, KP13368 (KP13368; ESKAPE panel, Gram-negative) | MIC (KP13368; Klebsiella pneumoniae)
0.5 µg/mL: MIC (extended bacterial panel; Enterococcus faecalis, CCUG47775, Enterococcus faecalis CCUG 47775, Van A) | MIC (extended bacterial panel; Staphylococcus aureus, BAA-1556 / MRSA / USA300, Staphylococcus aureus FPR3757, BAA-1556, USA300 MRSA) | MIC (extended bacterial panel; Staphylococcus aureus, MRSA / NRS 3 / VISA, Staphylococcus aureus NRS3, MRSA/VISA) | MIC (extended bacterial panel; Staphylococcus aureus, MRSA / NRS 271, Staphylococcus aureus E-MRSA 15, NRS271, MRSA LZD-NS) | MIC (extended bacterial panel; Staphylococcus aureus, MRSA / NRS 382 / USA100, Staphylococcus aureus NRS382, USA100 MRSA) | MIC (extended bacterial panel; Staphylococcus aureus, MRSA / NRS 385 / USA500, Staphylococcus aureus NRS385, USA500 MRSA) | MIC (extended bacterial panel; Staphylococcus aureus, MRSA / VISA, Staphylococcus aureus FDA-CDC AR-BANK# 0216) | MIC (extended bacterial panel; Staphylococcus aureus, MRSA / VISA, Staphylococcus aureus FDA-CDC AR-BANK# 0221) | MIC (extended bacterial panel; Staphylococcus aureus, MRSA / VRSA, Staphylococcus aureus VRS2, VanA MRSA/VRSA) | MIC (extended bacterial panel; Staphylococcus aureus, MRSA / VRSA, Staphylococcus aureus VRS3a, VanA MRSA/VRSA) | MIC (extended bacterial panel; Staphylococcus aureus, MRSA, Staphylococcus aureus ECL 2963743, MRSA DAP-NS) | MIC (extended bacterial panel; Staphylococcus aureus, MRSA, Staphylococcus aureus R136) | MIC (extended bacterial panel; Staphylococcus aureus, VRSA, Staphylococcus aureus ECL 2963646) | MIC (extended bacterial panel; Staphylococcus epidermidis, NRS7, Staphylococcus epidermidis NRS7, VISE)
≤ 0.0312 µg/mL: MIC (extended bacterial panel; Staphylococcus aureus, ATCC10390, Staphylococcus aureus ATCC 10390) | MIC (extended bacterial panel; Staphylococcus aureus, ATCC 13709 / MRSA, Staphylococcus aureus ATCC 13709, MRSA) | MIC (extended bacterial panel; Staphylococcus aureus, ATCC19636, Staphylococcus aureus Smith, ATCC 19636) | MIC (extended bacterial panel; Staphylococcus aureus, ATCC27660, Staphylococcus aureus ATCC 27660) | MIC (extended bacterial panel; Staphylococcus aureus, ATCC29213, Staphylococcus aureus ATCC 29213) | MIC (extended bacterial panel; Staphylococcus aureus, ATCC 33591 / MRSA, Staphylococcus aureus ATCC 33591, MRSA) | MIC (extended bacterial panel; Staphylococcus aureus, ATCC 33592 / MRSA, Staphylococcus aureus ATCC 33592, MRSA) | MIC (extended bacterial panel; Staphylococcus aureus, ATCC33594, Staphylococcus aureus ATCC 33594) | MIC (extended bacterial panel; Staphylococcus aureus, ATCC49230, Staphylococcus aureus ATCC 49230) | MIC (extended bacterial panel; Staphylococcus aureus, BAA-1707 / MRSA / USA400, Staphylococcus aureus MW2, BAA-1707, USA400 MRSA) | MIC (extended bacterial panel; Staphylococcus aureus, BAA-1717 / MRSA / USA300, Staphylococcus aureus TCH1516, BAA-1717, USA300 MRSA) | MIC (extended bacterial panel; Staphylococcus aureus, MRSA / NRS 100, Staphylococcus aureus COL, NRS100, MRSA) | MIC (extended bacterial panel; Staphylococcus aureus, MRSA / NRS 123 / USA400, Staphylococcus aureus NRS123, USA400 MRSA) | MIC (extended bacterial panel; Staphylococcus aureus, MRSA / NRS 384 / USA300, Staphylococcus aureus NRS384, USA300 MRSA) | MIC (extended bacterial panel; Staphylococcus aureus, MRSA / NRS 387 / USA800, Staphylococcus aureus NRS387, USA800 MRSA) | MIC (extended bacterial panel; Staphylococcus aureus, MRSA / NRS 483, Staphylococcus aureus NRS483, USA1000 MRSA) | MIC (extended bacterial panel; Staphylococcus aureus, MRSA / NRS 484, Staphylococcus aureus NRS484, USA1100 MRSA) | MIC (extended bacterial panel; Staphylococcus aureus, MRSA / VISA, Staphylococcus aureus FDA-CDC AR-BANK# 0226) | MIC (extended bacterial panel; Staphylococcus aureus, NRS72, Staphylococcus aureus Sanger-476, NRS72) | MIC (extended bacterial panel; Staphylococcus aureus, NRS157, Staphylococcus aureus NRS157) | MIC (extended bacterial panel; Staphylococcus aureus, Staphylococcus aureus 6538P) | MIC (extended bacterial panel; Staphylococcus aureus, VISA, Staphylococcus aureus FDA-CDC AR-BANK# 0222) | MIC (extended bacterial panel; Staphylococcus epidermidis, ATCC12228, Staphylococcus epidermidis ATCC 12228) | MIC (extended bacterial panel; Staphylococcus epidermidis, ATCC51625, Staphylococcus epidermidis CCF 15990, ATCC 51625) | MIC (extended bacterial panel; Staphylococcus epidermidis, NRS101, Staphylococcus epidermidis NRS101) | MIC (extended bacterial panel; Staphylococcus haemolyticus, ATCC29970, Staphylococcus haemolyticus ATCC 29970) | MIC (extended bacterial panel; Staphylococcus intermedius, ATCC29663, Staphylococcus intermedius ATCC 29663) | MIC (extended bacterial panel; Streptococcus mutans, ATCC25175, Streptococcus mutans ATCC 25175)
